Test results taken from patent publication US7820148B2, “Use of a complex nutritional base in cosmetics, in particular for the hair” (priority 2004, dated 2010).
Several values for one entry are separate records, joined by “and”; a condition that tells them apart may be missing. Equal entries are not always repeated.

System: scalp fragments
Test: Example 4: cell proliferation (anti-Ki67 immunohistochemistry) in root and outer epithelial sheath of scalp fragments kept in survival
Type: cell-based, human
Settings: N = 6, 48 hours
Protocol: The aim of the present study is to identify the effectiveness of a CNB according to the invention and according to Table 2, on the stimulation of the root. The cell proliferation, using the anti-Ki67 antibody, was evaluated in the matrix zone of the root (growth zone of the stem), but also in the outer epithelial sheath of the follicle.
Scalp fragments from 6 different donors (cervico-facial lift of a non-alopecia subject) were deposited in inserts, themselves positioned on culture wells.
Containing no preservative, antibiotics were added to all these tested media (fungizone, gentamycin). They were added daily to the bottom of the wells, a passage taking place by slow diffusion between the two compartments via a porous membrane (12 μm).
The scalp fragments were kept in survival in a stove at 37° C. and in an air/5% CO2 atmosphere for 48 hours.
The scalp fragments were fixed in Bouin's liquid and set in paraffin.
The immunohistochemical evaluation of proliferation was carried out in the root and in the outer epithelial sheath surrounding the hair. This outer sheath is histologically considered as the prolongation of the surface epidermis.
Epithelial proliferation was analyzed by immunohistochemistry using an anti-Ki67 antibody (for labelling cells M, S, G1 and G2 of the cell cycle). Immunodetection was carried out using an indirect immunoperoxidase technique in 3 layers, amplified by (DAKO kit) and developed in AEC.
The number of labelled cells of the outer epithelial sheath was counted between the origin of the sebaceous glands and the beginning of the root zone. Furthermore, the labelled matrix cells in the roots were also counted. The percentage of cells undergoing proliferation was thereby calculated compared to the unlabelled cells.
Statistical analysis was carried out by the Student's test of the reduced deviation or paired samples test. The significant threshold was set at 5%.

Nc1cc(N2CCCCC2)nc(N)[n+]1[O-] [Minoxidil]
% of labelled cells (anti-Ki67) in the outer epithelial sheath of the follicles (Minoxidil 0.01% in PBS): 10.2% and 10.2 ± 5% | % of labelled matrix cells (anti-Ki67) in the root of the hair follicle (Minoxidil 0.01% in PBS): 4.2% and 4.2 ± 2.45% | % of labelled cells (anti-Ki67) in the outer epithelial sheath of the follicles (Minoxidil 2% in PBS): 17.6% and 17.6 ± 7 % | % of labelled matrix cells (anti-Ki67) in the root of the hair follicle (Minoxidil 2% in PBS): 11.60% and 11.6 ± 8.7%
